Experimental data taken from paper PMC3121759 (PLoS ONE, 2011).

Legend:
[1] = target: T1, GlyT-1 (Rattus norvegicus, UniProt P28572); assay: Drug inhibition of [3H]CHIBA-3007 binding to rat brain membranes; details: [3H]CHIBA-3007 (1 nM), 120 min room temperature, mean ± S.E.M., n=3
T1 construct: the tissues of whole brains or each specific brain region were homogenized; from tissue; host or cells: rat brain (whole brain or dissected regions; male Crl:CD (SD) rats)
T1 sequence (P28572 1-638): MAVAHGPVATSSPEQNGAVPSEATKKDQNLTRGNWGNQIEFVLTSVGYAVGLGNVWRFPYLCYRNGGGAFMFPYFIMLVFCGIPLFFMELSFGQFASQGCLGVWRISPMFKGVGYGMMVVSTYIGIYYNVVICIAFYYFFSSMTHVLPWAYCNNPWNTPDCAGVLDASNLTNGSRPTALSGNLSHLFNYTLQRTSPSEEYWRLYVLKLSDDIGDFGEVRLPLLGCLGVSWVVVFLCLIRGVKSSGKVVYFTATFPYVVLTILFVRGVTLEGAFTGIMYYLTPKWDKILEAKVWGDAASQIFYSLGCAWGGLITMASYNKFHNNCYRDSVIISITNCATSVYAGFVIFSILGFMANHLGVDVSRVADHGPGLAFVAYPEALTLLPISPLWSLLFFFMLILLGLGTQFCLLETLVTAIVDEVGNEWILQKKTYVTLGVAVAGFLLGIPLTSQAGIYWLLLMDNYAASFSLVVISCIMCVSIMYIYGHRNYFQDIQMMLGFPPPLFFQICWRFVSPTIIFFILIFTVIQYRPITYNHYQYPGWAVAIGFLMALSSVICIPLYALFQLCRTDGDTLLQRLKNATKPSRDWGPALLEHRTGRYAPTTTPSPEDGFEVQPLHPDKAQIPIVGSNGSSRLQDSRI
Description: The supernatant was discarded and the pellet was re-suspended, homogenized and centrifuged as above. The membrane pellet was washed and re-suspended in ice-cold HEPES buffer and was then centrifuged three times. The final pellet was re-suspended in 15 volumes of the buffer (120 mM NaCl, 2 mM KCl, 1 mM CaCl2, 1 mM MgCl2 10 mM HEPES, pH 7.5 at room temperature).
The binding reaction was terminated by rapid vacuum filtration onto Whatman GF/B glass filters pretreated with 0.5% polyethyleneimine (Sigma-Aldrich Co.) using a 24-channel cell harvester (Brandell, Gaithersburg, MD). The filters were washed with 5 mL of ice-cold assay buffer 3 times, and placed in vials with 4 mL scintillation cocktail. The radioactivity trapped by the filters was determined using a liquid scintillation counter (Beckman LS-6500; Beckman Coulter K.K., Tokyo, Japan).
(§1) The data are shown as the mean ± standard error of the mean (S.E.M.). The dissociation constant (Kd) and maximal binding (Bmax) values from saturation binding and the IC50 values from binding displacement by each drug were determined using the program GraphPad Prism (GraphPad Software, San Diego, CA). […] Correlation was analyzed by Pearson's Correlation Coefficient (PASW Statistics 19, Tokyo, Japan). Significance was set at p<0.05.

[2] = target: T1, GlyT-1; assay: Inhibition of [14C]glycine uptake in rat brain membranes; format: biochemical
Description: The homogenate was centrifuged at 1,000 g for 10 min to remove nuclei and debris, and then the supernatant was centrifuged again at 20,000 g for 20 min (synaptosomal P2 fraction). The pellet was washed and re-suspended in ice-cold 0.32 M sucrose, buffered with 10 mM HEPES (pH 7.4) and centrifuged again at 20,000 g for 20 min (washed P2 fraction). The pellet was re-suspended in 10 volumes of assay buffer with the following composition: 10 mM HEPES buffer (pH 7.4) containing 140 mM NaCl, 5.5 mM KCl, 1.8 mM CaCl2, 0.8 mM MgSO4, 5 mM glucose and 5 mM L-alanine (HB). The protein concentrations were measured by using a DC protein assay kit (Bio-Rad Laboratories Inc., Tokyo, Japan).
Non-specific uptake was estimated in the presence of 30 µM SSR504734. […] The filters were washed by buffer, and the radioactivity trapped by the filters was determined using a liquid scintillation counter as described above.
as §1

[3] = 28 standard target binding profile; details: 1 µM
Description: (§2) Table S1. Inhibition effect of CHIBA-3007 (1 µM) on radioligand binding to various receptors
(§3) Test substance concentration: 1 µM, Positive substance concentration : 10 µM
(§4) Data are expressed as the mean values of duplicate samples.
(§5) The % inhibition was calculated from “100 – binding ratio”.
(§6) Binding ratio: [(B - N) / (B0 - N)] × 100 (%) B: Bound radioactivity in the presence of test substance and positive substance (individual value), B0: Total bound radioactivity in the absence of test substance and positive substance (mean value), N: Non-specific bound radioactivity (mean value)

[4] = test system: Adenosine A1; assay: Radioligand binding, [3H]DPCPX; details: Adenosine A1, [3H]DPCPX, duplicate
Description: as §2, §3, §4, §5, §6

[5] = test system: Adenosine A2; assay: Radioligand binding, [3H]CGS21680; details: Adenosine A2, [3H]CGS21680, 1 µM, duplicate
Description: as §2, §3, §4, §5, §6

[6] = test system: α1-Adrenergic (Non-selective); assay: Radioligand binding, [3H]Prazosin; details: duplicate
Description: as §2, §3, §4, §5, §6

[7] = test system: α2-Adrenergic (Non-selective); assay: Radioligand binding, [3H]RX821002; details: [3H]RX821002, 1 µM, duplicate
Description: as §2, §3, §4, §5, §6

[8] = test system: β-Adrenergic (Non-selective); assay: Radioligand binding, [3H]DHA; details: duplicate
Description: as §2, §3, §4, §5, §6

[9] = test system: Dopamine D1; assay: Radioligand binding, [3H]SCH23390; details: Dopamine D1, [3H]SCH23390, 1 µM, duplicate
Description: as §2, §3, §4, §5, §6

[10] = test system: Dopamine D2; assay: Radioligand binding, [3H]Spiperone; details: Dopamine D2, [3H]Spiperone, duplicate
Description: as §2, §3, §4, §5, §6

[11] = test system: GABA -A (Agonist site); assay: Radioligand binding, [3H]Muscimol; details: duplicate
Description: as §2, §3, §4, §5, §6

[12] = test system: GABA- A (BZ central); assay: Radioligand binding, [3H]Flunitrazepam; details: duplicate
Description: as §2, §3, §4, §5, §6

[13] = test system: GABA -B; assay: Radioligand binding, [3H]GABA; details: duplicate
Description: as §2, §3, §4, §5, §6

[14] = test system: Glutamate (Non-selective); assay: Radioligand binding, [3H]Glutamic acid; details: duplicate
Description: as §2, §3, §4, §5, §6

[15] = test system: Glutamate (AMPA); assay: Radioligand binding, [3H]AMPA; details: duplicate
Description: as §2, §3, §4, §5, §6

[16] = test system: Glutamate (Kainate); assay: Radioligand binding, [3H]Kainic acid; details: duplicate
Description: as §2, §3, §4, §5, §6

[17] = test system: Glutamate (NMDA agonist site); assay: Radioligand binding, [3H]CGP-39653; details: [3H]CGP-39653, 1 µM, duplicate
Description: as §2, §3, §4, §5, §6

[18] = test system: Glutamate (NMDA glycine site); assay: Radioligand binding, [3H]MDL105519; details: [3H]MDL105519, 1 µM, duplicate
Description: as §2, §3, §4, §5, §6

[19] = test system: Glutamate (NMDA phencyclidine site); assay: Radioligand binding, [3H]MK-801; details: [3H]MK-801, 1 µM, duplicate
Description: as §2, §3, §4, §5, §6

[20] = test system: Glycine (Strychnine sensitive); assay: Radioligand binding, [3H]Strychnine; details: duplicate
Description: as §2, §3, §4, §5, §6

[21] = test system: Histamine H1 (Central); assay: Radioligand binding, [3H]Pyrilamine; details: duplicate
Description: as §2, §3, §4, §5, §6

[22] = test system: Histamine H2; assay: Radioligand binding, [3H]Cimetidine; details: Histamine H2, [3H]Cimetidine, duplicate
Description: as §2, §3, §4, §5, §6

[23] = test system: Histamine H3; assay: Radioligand binding, [3H]N-methyl histamine; details: Histamine H3, [3H]N-methyl histamine, duplicate
Description: as §2, §3, §4, §5, §6

[24] = test system: Muscarinic M1; assay: Radioligand binding, [3H]Pirenzepine; details: Muscarinic M1, [3H]Pirenzepine, duplicate
Description: as §2, §3, §4, §5, §6

[25] = test system: Muscarinic M2; assay: Radioligand binding, [3H]AF-DX-384; details: Muscarinic M2, [3H]AF-DX-384, 1 µM, duplicate
Description: as §2, §3, §4, §5, §6

[26] = test system: Nicotinic Ni; assay: Radioligand binding, [3H]Nicotine; details: duplicate
Description: as §2, §3, §4, §5, §6

[27] = test system: Opiate (Non-selective); assay: Radioligand binding, [3H]Naloxone; details: duplicate
Description: as §2, §3, §4, §5, §6

[28] = test system: Serotonin 5-HT1A; assay: Radioligand binding, [3H]8-OH DPAT; details: duplicate
Description: as §2, §3, §4, §5, §6

[29] = test system: Serotonin 5-HT2A; assay: Radioligand binding, [3H]Ketanserin; details: duplicate
Description: as §2, §3, §4, §5, §6

[30] = test system: Serotonin 5-HT3 (Human); assay: Radioligand binding, [3H]GR65630; details: [3H]GR65630, 1 µM, duplicate
Description: as §2, §3, §4, §5, §6

[31] = test system: Sigma (Non-selective); assay: Radioligand binding, [3H]DTG; details: duplicate
Description: as §2, §3, §4, §5, §6

SMILES: CN1CCCC[C@@H]1[C@@H](NC(=O)c1nccc(C(F)(F)F)c1Cl)c1ccsc1 [CHIBA-3007, 3-Chloro-N-((S)-((R)-1-methylpiperidin-2-yl)(thiophen-3-yl)methyl)-4-(trifluoromethyl)picolinamide]
- Ki [1]: 2.8 ± 0.17 nM
- IC50 [2]: 21.4 ± 8.4 nM
- Inhibition in 28 standard target binding profile [3]: lower than 50%
- % Inhibition (1 µM) [4]: 2.12%
- % Inhibition (1 µM) [5]: 5.86%
- % Inhibition (1 µM) [6]: 1.13%
- % Inhibition (1 µM) [7]: 20.98%
- % Inhibition (1 µM) [8]: 8.39%
- % Inhibition (1 µM) [9]: 2.32%
- % Inhibition (1 µM) [10]: 1.00%
- % Inhibition (1 µM) [11]: 0.20%
- % Inhibition (1 µM) [12]: 2.78%
- % Inhibition (1 µM) [13]: 8.19%
- % Inhibition (1 µM) [14]: 1.91%
- % Inhibition (1 µM) [15]: 3.27%
- % Inhibition (1 µM) [16]: 1.50%
- % Inhibition (1 µM) [17]: 8.17%
- % Inhibition (1 µM) [18]: 4.02%
- % Inhibition (1 µM) [19]: 3.80%
- % Inhibition (1 µM) [20]: 0.00%
- % Inhibition (1 µM) [21]: 1.83%
- % Inhibition (1 µM) [22]: 3.80%
- % Inhibition (1 µM) [23]: 0.00%
- % Inhibition (1 µM) [24]: 8.35%
- % Inhibition (1 µM) [25]: 16.31%
- % Inhibition (1 µM) [26]: 2.10%
- % Inhibition (1 µM) [27]: 43.44%
- % Inhibition (1 µM) [28]: 35.22%
- % Inhibition (1 µM) [29]: 30.56%
- % Inhibition (1 µM) [30]: 7.36%
- % Inhibition (1 µM) [31]: 24.20%
